Assay results published in ChEMBL document CHEMBL4002566, “S-substituted 3,5-dinitrophenyl 1,3,4-oxadiazole-2-thiols and tetrazole-5-thiols as highly efficient antitubercular agents” (Eur J Med Chem, 2017).
In brackets after ≈: the same amount, converted by molar mass.

What was measured:
[1] = tested on: Mycobacterium tuberculosis; assay: Antimycobacterial activity against Mycobacterium tuberculosis by broth microdilution method; type: functional
[2] = tested on: Mycobacterium tuberculosis; assay: Antimycobacterial activity against Mycobacterium tuberculosis H37Rv expressing GFP after 7 days; type: functional; details: 168 h
[3] = tested on: Mycobacterium tuberculosis; assay: Antimycobacterial activity against Mycobacterium tuberculosis MDR_CHUV by resazurin reduction microplate assay; type: functional
[4] = tested on: Mycobacterium tuberculosis; assay: Antimycobacterial activity against Mycobacterium tuberculosis H37Rv by broth microdilution method; type: functional
[5] = tested on: Mycobacterium tuberculosis; assay: Antimycobacterial activity against Mycobacterium tuberculosis H37Rv after 7 days by resazurin reduction microplate assay; type: functional; details: 168 h
[6] = tested on: Mycobacterium tuberculosis; assay: Antimycobacterial activity against Mycobacterium tuberculosis after 14 days; type: functional; details: 336 h
[7] = Cytotoxicity against human HepG2 cells assessed as cell viability at 30 uM after 48 hrs by MTS assay relative to control; type: cell-based; details: read-out: Activity
Huh-7 = assay: Cytotoxicity against human HuH7 cells assessed as cell viability after 48 hrs by MTS assay; type: cell-based; details: Huh-7, 48 h
Klebsiella pneumoniae [8] = assay: Antibacterial activity against extended spectrum beta-lactamase producing Klebsiella pneumoniae HK14368/08 after 24 hrs by broth microdilution method; type: functional; details: HK14368/08, 24 h
Staphylococcus aureus [9] = assay: Antibacterial activity against Staphylococcus aureus ATCC 6538 after 48 hrs by broth microdilution method; type: functional; details: ATCC 6538, 48 h
Lichtheimia corymbifera [10] = assay: Antifungal activity against Absidia corymbifera 272 after 48 hrs by broth microdilution method; type: functional; details: Lichtheimia corymbifera, 272, 48 h
[11] = Cytotoxicity against human A431 cells assessed as cell viability at 30 uM after 48 hrs by MTS assay relative to control; type: cell-based, A-431; details: read-out: Activity
[12] = tested on: Mycobacterium tuberculosis; assay: Antimycobacterial activity against Mycobacterium tuberculosis CNCTC My 331/88 after 14 days by micromethod; type: functional; details: CNCTC My 331/88, 336 h
Mycobacterium kansasii [13] = assay: Antimycobacterial activity against Mycobacterium kansasii 6509/96 clinical isolate after 21 days by micromethod; type: functional; details: 6509/96, 504 h
[14] = tested on: Trichophyton mentagrophytes; assay: Antifungal activity against Trichophyton mentagrophytes 445 after 120 hrs by broth microdilution method; type: functional; details: Trichophyton mentagrophytes, 445, 120 h
Escherichia coli [15] = assay: Antibacterial activity against Escherichia coli ATCC 8739 after 48 hrs by broth microdilution method; type: functional; details: ATCC 8739, 48 h
Mycobacterium kansasii [16] = assay: Antimycobacterial activity against Mycobacterium kansasii CNCTC My 235/80 after 14 days by micromethod; type: functional; details: CNCTC My 235/80, 336 h
MDCK = assay: Cytotoxicity against MDCK cells assessed as cell viability after 48 hrs by MTS assay; type: cell-based; details: Canis lupus familiaris
Trichosporon asahii [17] = assay: Antifungal activity against Trichosporon asahii 1188 after 24 hrs by broth microdilution method; type: functional; details: Trichosporon asahii, 1188, 24 h
[18] = tested on: Staphylococcus epidermidis; assay: Antibacterial activity against Staphylococcus epidermidis HK6996/08 after 24 hrs by broth microdilution method; type: functional; details: HK6996/08, 24 h
[19] = tested on: Trichophyton mentagrophytes; assay: Antifungal activity against Trichophyton mentagrophytes 445 after 72 hrs by broth microdilution method; type: functional; details: Trichophyton mentagrophytes, 445, 72 h
Mycobacterium kansasii [20] = assay: Antimycobacterial activity against Mycobacterium kansasii CNCTC My 235/80 after 21 days by micromethod; type: functional; details: CNCTC My 235/80, 504 h
Klebsiella pneumoniae [21] = assay: Antibacterial activity against extended spectrum beta-lactamase producing Klebsiella pneumoniae HK14368/08 after 48 hrs by broth microdilution method; type: functional; details: HK14368/08, 48 h
Pichia kudriavzevii [22] = assay: Antifungal activity against Candida krusei E28 after 48 hrs by broth microdilution method; type: functional; details: E28, 48 h
Klebsiella pneumoniae [23] = assay: Antibacterial activity against Klebsiella pneumoniae HK11750/08 after 48 hrs by broth microdilution method; type: functional; details: HK11750/08, 48 h
A-431 = assay: Cytotoxicity against human A431 cells assessed as cell viability after 48 hrs by MTS assay; type: cell-based; details: A-431, 48 h
Candida albicans [24] = assay: Antifungal activity against Candida albicans ATCC 44859 after 48 hrs by broth microdilution method; type: functional; details: ATCC 44859, 48 h
Trichosporon asahii [25] = assay: Antifungal activity against Trichosporon asahii 1188 after 48 hrs by broth microdilution method; type: functional; details: Trichosporon asahii, 1188, 48 h
Staphylococcus aureus [26] = assay: Antibacterial activity against Staphylococcus aureus ATCC 6538 after 24 hrs by broth microdilution method; type: functional; details: ATCC 6538, 24 h
Escherichia coli [27] = assay: Antibacterial activity against Escherichia coli ATCC 8739 after 24 hrs by broth microdilution method; type: functional; details: ATCC 8739, 24 h
Mycobacterium kansasii [28] = assay: Antimycobacterial activity against Mycobacterium kansasii 6509/96 clinical isolate after 7 days by micromethod; type: functional; details: 6509/96, 168 h
Aspergillus fumigatus [29] = assay: Antifungal activity against Aspergillus fumigatus 231 after 24 hrs by broth microdilution method; type: functional; details: Aspergillus fumigatus, 231, 24 h
Aspergillus fumigatus [30] = assay: Antifungal activity against Aspergillus fumigatus 231 after 48 hrs by broth microdilution method; type: functional; details: Aspergillus fumigatus, 231, 48 h
Pichia kudriavzevii [31] = assay: Antifungal activity against Candida krusei E28 after 24 hrs by broth microdilution method; type: functional; details: E28, 24 h
Lichtheimia corymbifera [32] = assay: Antifungal activity against Absidia corymbifera 272 after 24 hrs by broth microdilution method; type: functional; details: Lichtheimia corymbifera, 272, 24 h
[33] = tested on: Mycobacterium tuberculosis; assay: Antimycobacterial activity against Mycobacterium tuberculosis CNCTC My 331/88 after 21 days by micromethod; type: functional; details: CNCTC My 331/88, 504 h
Mycobacterium avium [34] = assay: Antimycobacterial activity against Mycobacterium avium CNCTC My 330/88 after 21 days by micromethod; type: functional; details: CNCTC My 330/88, 504 h
Klebsiella pneumoniae [35] = assay: Antibacterial activity against Klebsiella pneumoniae HK11750/08 after 24 hrs by broth microdilution method; type: functional; details: HK11750/08, 24 h
Candida tropicalis [36] = assay: Antifungal activity against Candida tropicalis 156 after 48 hrs by broth microdilution method; type: functional; details: Candida tropicalis, 156, 48 h
Candida tropicalis [37] = assay: Antifungal activity against Candida tropicalis 156 after 24 hrs by broth microdilution method; type: functional; details: Candida tropicalis, 156, 24 h
[38] = Cytotoxicity against MDCK cells assessed as cell viability at 30 uM after 48 hrs by MTS assay relative to control; type: cell-based, Canis lupus familiaris; details: dog, read-out: Activity
Candida albicans [39] = assay: Antifungal activity against Candida albicans ATCC 44859 after 24 hrs by broth microdilution method; type: functional; details: ATCC 44859, 24 h
Pseudomonas aeruginosa [40] = assay: Antibacterial activity against Pseudomonas aeruginosa ATCC 9027 after 24 hrs by broth microdilution method; type: functional; details: ATCC 9027, 24 h
Mycobacterium avium [41] = assay: Antimycobacterial activity against Mycobacterium avium CNCTC My 330/88 after 14 days by micromethod; type: functional; details: CNCTC My 330/88, 336 h
[42] = tested on: Staphylococcus epidermidis; assay: Antibacterial activity against Staphylococcus epidermidis HK6996/08 after 48 hrs by broth microdilution method; type: functional; details: HK6996/08, 48 h
Staphylococcus aureus [43] = assay: Antibacterial activity against methicillin-resistant Staphylococcus aureus HK5996/08 after 24 hrs by broth microdilution method; type: functional; details: HK5996/08, 24 h
Enterococcus sp. [44] = assay: Antibacterial activity against Enterococcus sp. HK14365/08 after 24 hrs by broth microdilution method; type: functional; details: HK14365/08, 24 h
Mycobacterium kansasii [45] = assay: Antimycobacterial activity against Mycobacterium kansasii 6509/96 clinical isolate after 14 days by micromethod; type: functional; details: 6509/96, 336 h
Nakaseomyces glabratus [46] = assay: Antifungal activity against Candida glabrata 20/I after 48 hrs by broth microdilution method; type: functional
Mycobacterium kansasii [47] = assay: Antimycobacterial activity against Mycobacterium kansasii CNCTC My 235/80 after 7 days by micromethod; type: functional; details: CNCTC My 235/80, 168 h
Nakaseomyces glabratus [48] = assay: Antifungal activity against Candida glabrata 20/I after 24 hrs by broth microdilution method; type: functional
[49] = Selectivity index, ratio of IC50 for human HepG2 cells to MIC for Mycobacterium tuberculosis; type: toxicity; details: read-out: Selectivity Index
[50] = Cytotoxicity against human HuH7 cells assessed as cell viability at 30 uM after 48 hrs by MTS assay relative to control; type: cell-based, Huh-7; details: read-out: Activity
Enterococcus sp. [51] = assay: Antibacterial activity against Enterococcus sp. HK14365/08 after 48 hrs by broth microdilution method; type: functional; details: HK14365/08, 48 h
Staphylococcus aureus [52] = assay: Antibacterial activity against methicillin-resistant Staphylococcus aureus HK5996/08 after 48 hrs by broth microdilution method; type: functional; details: HK5996/08, 48 h
Pseudomonas aeruginosa [53] = assay: Antibacterial activity against Pseudomonas aeruginosa ATCC 9027 after 48 hrs by broth microdilution method; type: functional; details: ATCC 9027, 48 h
HepG2 = assay: Cytotoxicity against human HepG2 cells assessed as cell viability after 48 hrs by MTS assay; type: cell-based; details: HepG2, 48 h

Structure (SMILES): CCC1Cn2cc([N+](=O)[O-])nc2O1 (stereo not drawn)
- MIC [1]: 0.2 µM (≈ 0.0366 µg/mL)

Structure (SMILES): COc1ccc(OCCNC(=O)c2cc([N+](=O)[O-])cc([N+](=O)[O-])c2)cc1
- MIC [2]: 0.2 µM (≈ 0.0723 µg/mL)

Structure (SMILES): Cn1nc([N+](=O)[O-])nc1Oc1ccc(C(C)(C)C)cc1
- MIC [2]: 0.5 µM (≈ 0.138 µg/mL)

Structure (SMILES): O=c1nc(N2CCN(CC3CCCCC3)CC2)sc2c([N+](=O)[O-])cc(C(F)(F)F)cc12 [MACOZINONE]
- MIC [3]: 0.0004 µM (≈ 0.000183 µg/mL)

Structure (SMILES): C[C@H]1COC2(CCN(c3nc(=O)c4cc(C(F)(F)F)cc([N+](=O)[O-])c4s3)CC2)O1 [BTZ-043]
- MIC [4]: 0.001 µM (≈ 0.000431 µg/mL)

Structure (SMILES): Cc1nc2cc(Br)cc([N+](=O)[O-])c2nc1-c1ccccc1
- MIC [5]: 3.1 µM (≈ 1.07 µg/mL)

Structure (SMILES): C[C@]1(COc2ccc(N3CCC(Oc4ccc(OC(F)(F)F)cc4)CC3)cc2)Cn2cc([N+](=O)[O-])nc2O1 [DELAMANID]
- MIC [6]: 0.023 µM (≈ 0.0123 µg/mL)

Structure (SMILES): O=[N+]([O-])c1cc(-c2nnc(SCc3ccccc3Cl)o2)cc([N+](=O)[O-])c1
- viability at 48 h, 30 µM [7]: 129%
- IC50 (Huh-7): > 30 µM
- MIC (Klebsiella pneumoniae [8]): > 500 µM
- MIC (Staphylococcus aureus [9]): > 500 µM
- MIC (Lichtheimia corymbifera [10]): > 500 µM
- viability at 48 h, 30 µM [11]: 91%
- MIC [12]: 0.03 µM (≈ 0.0118 µg/mL)
- MIC (Mycobacterium kansasii [13]): 0.125 µM (≈ 0.0491 µg/mL)
- MIC [14]: > 500 µM
- MIC (Escherichia coli [15]): > 500 µM
- MIC (Mycobacterium kansasii [16]): 0.125 µM (≈ 0.0491 µg/mL)
- IC50 (MDCK): > 30 µM
- MIC (Trichosporon asahii [17]): > 500 µM
- MIC [18]: > 500 µM
- MIC [19]: > 500 µM
- MIC (Mycobacterium kansasii [20]): 0.125 µM (≈ 0.0491 µg/mL)
- MIC (Klebsiella pneumoniae [21]): > 500 µM
- MIC (Pichia kudriavzevii [22]): > 500 µM
- MIC (Klebsiella pneumoniae [23]): > 500 µM
- IC50 (A-431): > 30 µM
- MIC (Candida albicans [24]): > 500 µM
- MIC (Trichosporon asahii [25]): > 500 µM
- MIC (Staphylococcus aureus [26]): > 500 µM
- MIC (Escherichia coli [27]): > 500 µM
- MIC (Mycobacterium kansasii [28]): 0.06 µM (≈ 0.0236 µg/mL)
- MIC (Aspergillus fumigatus [29]): > 500 µM
- MIC (Aspergillus fumigatus [30]): > 500 µM
- MIC (Pichia kudriavzevii [31]): > 500 µM
- MIC (Lichtheimia corymbifera [32]): > 500 µM
- MIC [33]: 0.03 µM (≈ 0.0118 µg/mL)
- MIC (Mycobacterium avium [34]): 8 µM (≈ 3.14 µg/mL)
- MIC (Klebsiella pneumoniae [35]): > 500 µM
- MIC (Candida tropicalis [36]): > 500 µM
- MIC (Candida tropicalis [37]): > 500 µM
- viability at 48 h, 30 µM [38]: 115%
- MIC (Candida albicans [39]): > 500 µM
- MIC (Pseudomonas aeruginosa [40]): > 500 µM
- MIC (Mycobacterium avium [41]): 4 µM (≈ 1.57 µg/mL)
- MIC [42]: > 500 µM
- MIC (Staphylococcus aureus [43]): > 500 µM
- MIC (Enterococcus sp. [44]): > 500 µM
- MIC (Mycobacterium kansasii [45]): 0.06 µM (≈ 0.0236 µg/mL)
- MIC (Nakaseomyces glabratus [46]): > 500 µM
- MIC (Mycobacterium kansasii [47]): 0.06 µM (≈ 0.0236 µg/mL)
- MIC (Nakaseomyces glabratus [48]): > 500 µM
- selectivity ratio [49]: > 1000
- viability at 48 h, 30 µM [50]: 144%
- MIC (Enterococcus sp. [51]): > 500 µM
- MIC (Staphylococcus aureus [52]): > 500 µM
- MIC (Pseudomonas aeruginosa [53]): > 500 µM
- IC50 (HepG2): > 30 µM
